Experimental data as given in patent US20050096370A1, “Method for inhibiting tumor angiogenesis and tumor growth” (Bizbiotech Co., Ltd., priority 2003, published 2005).

Legend:
[1] = system: VEGF; assay: VEGF protein ELISA in Hep3B cell-conditioned medium; assay type: cell-based, human; details: Hep3B cells, hypoxic, 24 hours, versus untreated hypoxic cells (P<0.001)
Procedure: FIG. 3 is a histogram showing the amount of VEGF protein. […] The VEGF concentrations were quantified by comparison with a series of VEGF standard samples included in the assay kit. VEGF level in each experiment was measured twice. Bars represent the mean of four separate experiments with the 95% confidence interval. * denotes statistical significance compared to control supernatants from cells cultured under normoxic conditions (P<0.001); # denotes statistical significance compared to control supernatants from cells cultured under hypoxic conditions (P<0.00 1).
Immunoblotting was used to detect HIF-1 protein in cultured cells, as described (Chun et al., Biochem Pharmacol 2001 61:947-954). […] To quantify mRNAs for HIF-1α and HIF-1-regulated genes, we performed a highly sensitive, semi-quantitative reverse transcription-polymerase chain reaction (RT PCR), as described previously (Chun et al., J Cell Sci 2001 114:4051-4061). […] P-actin mRNA was measured as a PCR control. […] To assess whether the VEGF mRNA levels affected levels of VEGF protein secreted into the medium, we measured VEGF protein levels in Hep3B cell-conditioned medium. […] VEGF levels in the conditioned media were quantified by using the Quantikine human VEGF Immunoassay kit (R&D Systems, Minneapolis, Minn.) according to the manufacturer's recommended protocol. […]

[2] = system: SiHa cervical carcinoma; assay: SiHa cervical carcinoma xenograft tumor growth in nude mice; assay type: in vivo; details: YC-1 30 μg/g daily i.p. 2 weeks, P<0.01
Procedure: (§1) Male nude mice were injected subcutaneously in the flank with 5×10^6 viable Hep3B hepatoma (A), NCI-H87 gastric carcinoma (B), SiHa cervical carcinoma (C), SK-N-MC neuroblastoma (E), or Caki-I renal carcinoma (F) cells. […] Tumor size was measured over time. […] Differences between tumor sizes in the vehicle- and YC-1-treated groups for mice with Hep3B tumors were compared using ANOVA and Duncan's multiple range tests. * denotes P<0.001 relative to the control. Differences between tumor sizes in the vehicle and YC-1-treated groups for mice with other tumors (B-E) were compared using a Mann-Whitney U test. Each number beneath the error bar represents the P value of the difference relative to the control.
(§2) Male nude (BALB/cAnNC˜-nu/nu) mice were purchased from Charles River Japan Inc. (Shin-Yokohama, JAPAN). The animals were housed in a specific pathogen-free room under controlled temperature and humidity. All animal procedures were performed according to the established procedures of the Seoul National University Laboratory Animal Maintenance Manual. Eighty mice aged 7-8 weeks were injected with tumor cells for the xenograft experiments. […]
(§3) Tumors were measured every 2 or 3 days with calipers in two dimensions and the tumor volumes were calculated using the formula: Volume=axb2/2, where a is the width at the widest point of the tumor and h is the width perpendicular to a. […]

[3] = system: SK-N-MC neuroblastoma; assay: SK-N-MC neuroblastoma xenograft tumor growth in nude mice; assay type: in vivo; details: YC-1 30 μg/g daily i.p. 2 weeks, P<0.01
Procedure: as §1, §2, §3

## OCc1ccc(-c2nn(Cc3ccccc3)c3ccccc23)o1 [YC-1, 3-(5′-hydroxymethyl-2′-furyl)-1-benzylindazole]
[1]
  VEGF protein level in medium: decreased in a dose-dependent manner
[2]
  tumor size versus vehicle: statistically significantly smaller
[3]
  tumor size versus vehicle: statistically significantly smaller
